Source: patent US20100081723A1, “Memantine For The Treatment Of Childhood Behavioral Disorders” (priority 2004, published 2010)

Experiments:
[1] = test system: autistic children; conditions: small double-blind, placebo-controlled study; cited from earlier work
[2] = test system: hyperkinetic children, children with attention deficit disorder (ADD); conditions: in vivo; cited from earlier work
[3] = test system: pediatric patients diagnosed with ADHD combined type; experiment: Open-label study of memantine in pediatric ADHD combined type: ADHD-IV-RS; format: in vivo, human; conditions: for ADHD-IV-RS change from baseline, Week 4 (mean) / ADHD-IV-RS change from baseline, Week 8 (mean ± SD) / ADHD-IV-RS score, Week 4 (mean ± SD) / ADHD-IV-RS score, Week 8 (mean ± SD) / ADHD-IV-RS change from baseline, Week 4 (mean ± SD): ITT population
Source text: The Attention Deficit/Hyperactivity Disorder Rating Scale, Fourth Edition-Parent Version (ADHD-IV-RS) assesses each of the 18 individual criteria symptoms of ADHD in DSM-IV-TR™ on a severity grid (0=not present, 3=severe; overall minimum score=0, maximum score=54) (DuPaul et al., ADHD Rating Scale-IV: Checklists, Norms, and Clinical Interpretations 1998. New York: The Guilford Press). Inattention symptoms comprise the odd-numbered items, and hyperactive-impulsive symptoms are represented by the even-numbered items. The scale takes approximately 10 to 15 minutes to complete. […] It is to be completed by the patient's parent or legal guardian at Screening (part 1.1), Baseline, and from two to eight times during Visits 3 to 10, or upon study discontinuation.
(§1) The primary objective of this study was to provide preliminary safety and tolerability evaluations of memantine in pediatric patients with ADHD combined type. The secondary objectives of the study were to evaluate the pharmacokinetics of memantine in this patient population, and to provide preliminary evaluations of efficacy on effect based on a 8-week administration of memantine.
(§2) Design. This clinical trial was conducted as an open-label, single center, dose-finding outpatient study assessing memantine in pediatric patients diagnosed with ADHD combined type (DSM-IV-TR™ criteria). ADHD combined type is characterized by the presence of significant inattentive and hyperactive/impulsive symptomotology.
(§3) Patient Population. The study enrolled sixteen (16) male or female outpatients between the ages of 6 and 12 years, mean age of 8 years, diagnosed with ADHD combined type by DSM-IV-TR™ criteria based on clinical evaluation and a semi-structured interview, the Schedule for Affective Disorders and Schizophrenia for School-Age Pediatric patients-Present and Lifetime (K-SADS-PL).
(§4) Dosages. Sixteen (16) outpatients with a diagnosis of ADHD combined type received treatment with memantine for a total of 8 weeks. Patients were enrolled in to two groups of 8 patients each, Cohort 1 and Cohort 2. Dose adjustments were permitted for patients experiencing dose-limiting adverse events. For Cohort 1 patients, treatment consisted of a 4 week titration period from a starting dose of 2.4 mg/day at the start of week 0, to 4.8 mg/day at the start of week 1, to 7.2 mg/day at the start of Week 2 to a maximum dose of 10 mg/day at the start of week 3, with a maintenance dose of 10 mg/day continuing to the end of Week 8. For Cohort 2 patients, treatment consisted of a 4-week titration period from a starting dose of 4.8 mg/day at the start of Week 0, to 10 mg/day at the start of Week 1, to 14.8 mg/day at the start of Week 2, to a maximum dose of 20 mg/day at the start of Week 3, with a maintenance dose of 20 mg/day continuing to the end of Week 8.
(§5) Patients who missed 2 consecutive visits were discontinued from the study. […] The “Safety Population” consisted of all patients who took at least one dose of study medication. The “Intent-to-Treat (ITT) Population” consisted of all patients in the safety population with at least one post baseline efficacy assessment of ADHD-IV-RS or CGI-ADHD-S. ADHD-IV-RS or CGI-ADHD-S were administered 4 times per patient, once at Screening, once at baseline, once at the end of Week 4 and once at the end of Week 8. […] Those patients unable to tolerate the minimum daily dose after the Week 1 of dosing were discontinued from the study without replacement.
Efficacy parameters used for evaluation were the ADHD-IV-RS, CGI-ADHD-S, CCPT-II, Woodcock Johnson III reading and math fluency tests, and the Stroop test, described above.
The primary analysis for each efficacy parameter was based on observed cases. Only patients completing the evaluation were included in the OC analysis, missing data were not imputed. A last observation carried forward (LOCF) analysis was also performed for each efficacy assessment. […]

[4] = test system: pediatric patients diagnosed with ADHD combined type; experiment: Open-label study of memantine in pediatric ADHD combined type: CGI-ADHD-S; format: in vivo, human; conditions: Cohort 2, OC analysis, patients who completed the evaluation, end of 8 weeks; 100% moderately or markedly ill at baseline
Experimental: The Clinical Global Impression-ADHD-Severity (CGI-S) is a 7-point scale (1 [not ill] to 7 [extremely ill]) to be assessed by the Investigator at Screening (part 1.1), Baseline, and from two to eight times during Visits 3 to 10, or upon study discontinuation.
as §2, §3
Dosages. Sixteen (16) outpatients with a diagnosis of ADHD combined type received treatment with memantine for a total of 8 weeks. Patients were enrolled in to two groups of 8 patients each, Cohort 1 and Cohort 2. Dose adjustments were permitted for patients experiencing dose-limiting adverse events. […]

[5] = test system: pediatric patients diagnosed with ADHD combined type; experiment: Open-label ADHD study: overall efficacy, tolerability and patient disposition; format: in vivo, human
Experimental: as §1, §2, §4, §5
Adverse events. Adverse event (AE) monitoring was performed at all study visits except Screening, including early termination. An AE is any untoward medical occurrence in a patient or clinical investigation subject administered a pharmaceutical product. It is not necessary that the AE have a causal relationship to treatment with the product.
An AE therefore is any unfavorable and unintended sign (for example, a clinically significant abnormal laboratory finding) symptom, or disease temporally associated with the use of study medication, whether or not considered related to study medication. […] An AE occurring during the open-label treatment period is counted as a treatment-emergent AE (TEAE) if it is not present prior to the first dose of study medication or if it is present prior to the first dose of study medication but increases in severity following the first dose of study medication.
The number (percentage) of patients with TEAEs were tabulated by body system and preferred term. Within a specific category (i.e., a specific body system or preferred term), the patient was counted only once if the patient had more than one event reported. […]

[6] = cited from earlier work
[7] = test system: cytochrome P-450 (CYP 450) isoenzymes; conditions: in vitro; cited from earlier work
[8] = test system: NMDA receptor; conditions: uncompetitive antagonist; cited from earlier work
[9] = test system: patients with moderate to severe dementia of the Alzheimer's type; conditions: cited from earlier work
[10] = test system: patients with neurodegenerative disorders; conditions: cited from earlier work
[11] = aqueous media; cited from earlier work
[12] = test system: autistic spectrum disorders; conditions: in vivo; cited from earlier work
[13] = test system: autism; conditions: in vivo; cited from earlier work
[14] = Cohort 1 (up to 10 mg/day), LOCF
[15] = Cohort 2 (up to 20 mg/day), LOCF

## NC12CC3CC(CC(C3)C1)C2 [amantadine, 1-aminoadamantane]
[1]
  Measures of hyperactivity and irritability: statistically significant improvement
[2]
  Effects in hyperkinetic children and children with ADD: favorable effects

## CC12CC3CC(C)(C1)CC(N)(C3)C2.Cl [memantine, 1-amino-3,5-dimethyladamantane hydrochloride]
[3]; [14]
  ADHD-IV-RS change from baseline, Week 4 (mean): −3.3
  ADHD-IV-RS change from baseline, Week 8 (mean ± SD): −3.8 ± 2.31
  ADHD-IV-RS score, Week 4 (mean ± SD): 42.8 ± 8.33
  ADHD-IV-RS score, Week 8 (mean ± SD): 40.9 ± 8.53
[3]; Cohort 1 (up to 10 mg/day), OC
  ADHD-IV-RS change from baseline, Week 4 (mean ± SD): −3.5 ± 2.38
  ADHD-IV-RS score, Week 4 (mean ± SD): 42.8 ± 8.33
[3]; [15]
  ADHD-IV-RS change from baseline, Week 4 (mean): −10.9
  ADHD-IV-RS change from baseline, Week 8 (mean ± SD): −9 ± 10.00
  ADHD-IV-RS score, Week 4 (mean ± SD): 31.3 ± 13.05
  ADHD-IV-RS score, Week 8 (mean ± SD): 32.9 ± 12.76
[3]; Cohort 2 (up to 20 mg/day), OC
  ADHD-IV-RS change from baseline, Week 4 (mean ± SD): −11. ± 59.65
  ADHD-IV-RS change from baseline, Week 8 (mean ± SD): −16.5 ± 8.19
  ADHD-IV-RS score, Week 4 (mean ± SD): 29.5 ± 13.32
  ADHD-IV-RS score, Week 8 (mean ± SD): 22.3 ± 8.66
[3]; Cohort 2, end of 8 weeks, OC analysis
  Effect on ADHD-IV-RS (in words): showed improvement
[4]
  CGI-ADHD-S: patients considered borderline or markedly ill: 75%
[5]; 8-week open-label treatment, up to 10 or 20 mg/day
  Tolerability in patients with ADHD: well tolerated
[5]; Cohort 1, 8 patients, all discontinued prior to week 8
  Patients discontinued for insufficient therapeutic efficacy: 7
[5]; Cohort 2 (up to 20 mg/day)
  Behavior and symptomology of combined type ADHD (in words): demonstrated improvements
[5]; Cohort 2, 8 patients, 4 completed the study
  Patients discontinued for insufficient therapeutic efficacy: 3
[5]; the 25% of patients completing the study
  Efficacy after 8 weeks of treatment (in words): improvement in two efficacy parameters was observed
[6]; adult humans, oral
  Bioavailability after an oral dose: 100%
[6]; adult humans
  CSF/serum ratio: 0.52
  Metabolism: minimal
[6]; in vivo
  Effect of food, sex or age on pharmacokinetic profile: not affected
[7]
  Inhibition of CYP 450 isoenzymes: does not inhibit
[8]
  Affinity for the NMDA receptor: low to moderate
[9]; 2 US studies, outpatients ages 50-93, moderate to severe Alzheimer's dementia
  Cognitive, functional and global assessments: significant improvement
[9]; study 9403, Latvian nursing home patients, Alzheimer's disease or vascular dementia (MMSE<10)
  Care dependency and global change relative to placebo: significant improvement
[10]; 2297 patients in 27 clinical trials
  Safety and tolerability profile: acceptable
[10]; clinical trials, relatively rare
  Most common adverse events: dizziness, headache, constipation, and confusion
[11]
  Solubility: highly soluble

## Cc1nc2n(c(=O)c1CCN1CCC(c3noc4cc(F)ccc34)CC1)CCCC2 [risperidone]
[12]
  Adverse effects associated with treatment: weight gain, increased appetite, fatigue, drowsiness, tremor and drooling

## secretin: a synthetic form of the natural human hormone secretin developed by RepliGen for the potential treatment of autism
[13]
  Autistic behavior compared to placebo: did not demonstrate significant improvement
